Where a name gives a salt, the structure may show the parent alone. Read-outs that look alike come from different tables or passages of the source.
Columns and labels:
[1] = tested on: isolated guinea pig ileum (spasmogenic effect of histamine); test: Isolated guinea pig ileum, suppression of the spasmogenic effect of histamine; assay type: cell-based; settings: histamine spasm, read-out: Antihistaminic activity, isolated ileum of guinea pig, IC50
Excerpt: Study of the antihistaminic activity of the compounds on which a claim is made was done using known methodologies (Rukovodstvo po eksperimental'nomu izucheniyu novykh farmakologicheskikh veshchestv [Manual on experimental study of new pharmacological substances], Moscow, 2005, p. 489) on isolated guinea pig ileum (suppression of the spasmogenic effect of histamine) and on anesthetized guinea pigs (antagonism in relation to the bronchoconstrictor effect of histamine). In tests on intact animals, substances were administered intravenously (5 minutes before the administration of histamine) and orally (2 hours before the beginning of the study).

[2] = tested on: H1-histamine receptors (bronchoconstrictor effect of histamine); test: Anesthetized guinea pigs, antagonism of the bronchoconstrictor effect of histamine (histamine bronchospasm model); assay type: in vivo, guinea pig; settings: for Antihistaminic activity, guinea pigs in vivo, intravenous administration, ED50 / Antihistaminic activity, guinea pigs in vivo, peroral administration, ED50 / ED50: anesthetized guinea pigs; for ED50: Cavia porcellus
Procedure: In tests on intact animals, substances were administered intravenously (5 minutes before the administration of histamine) and orally (2 hours before the beginning of the study).

[3] = tested on: mice; test: Acute toxicity, mice perorally
[4] = tested on: histamine-induced itch; test: Itching induced by instillation of histamine solution into the eye of conscious guinea pigs; assay type: in vivo, guinea pig; settings: 3 mg/kg administered orally
Excerpt: (Rukovodstvo po […] [Manual on experimental study of new pharmacological substances], Moscow, 2005, p. 511)

[5] = tested on: passive cutaneous anaphylaxis; test: Passive cutaneous anaphylaxis model in rats; assay type: in vivo, rat; settings: dose 3 mg/kg
Excerpt: (Rukovodstvo po eksperimental'nomu izucheniyu novykh farmakologicheskikh veshchestv [Manual on experimental study of new pharmacological substances], Moscow, 2005, p. 511)

[6] = pH of aqueous solution of salts; assay type: physicochemical
[7] = intravenous, 5 minutes before histamine
[8] = orally 2 hours before the study

Cl.Cl.Cn1c(=O)n(CCN2CCN(C(c3ccc(F)cc3)c3ccc(F)cc3)CC2)c(=O)c2[nH]cnc21 [I-p]
IC50 [1]: 192 nM
Antihistaminic activity, guinea pigs in vivo, intravenous administration, ED50 [2, 7]: 1.5 mg/kg

Cl.Cl.Cn1c(=O)n(CCCN2CCN(C(c3ccc(F)cc3)c3ccc(F)cc3)CC2)c(=O)c2[nH]cnc21 [I-r]
Acute toxicity, LD50 [3]: >1000.0 mg/kg
IC50 [1]: 76 nM
Antihistaminic activity, guinea pigs in vivo, peroral administration, ED50 [2, 8]: >3.0 mg/kg

O=C(O)COCCN1CCN(C(c2ccccc2)c2ccc(Cl)cc2)CC1 (centres unmarked) [Cetirizine, reference compound]
Duration of the protective effect in the histamine-induced itch model [4]: diminishes significantly after 48 hours and disappears altogether after 72 hours
IC50 ([1]; Cavia porcellus): 127 nM
ED50 ([2]; po, orally 2 hours before the study, read-out: Antihistaminic activity, guinea pigs in vivo, peroral administration, ED50): 0.2 mg/kg
ED50 ([2]; intravenous, 5 minutes before histamine, read-out: Antihistaminic activity, guinea pigs in vivo, intravenous administration, ED50): 0.07 mg/kg
Duration of effective blockade of H1-histamine receptors ([2]; histamine bronchospasm model, oral dose of 3 mg/kg): 48 h
Antiallergic effect, passive cutaneous anaphylactic model [5]: moderate and similar antiallergic effect

Cl.Cl.Cn1c(=O)c2c(ncn2CC(O)CN2CCN(C(c3ccccc3)c3ccc(Cl)cc3)CC2)n(C)c1=O (racemic) [II-i]
Acute toxicity, LD50 [3]: >1000.0 mg/kg

Cl.Cl.Cn1c(=O)n(CCCCN2CCN(C(c3ccc(F)cc3)c3ccc(F)cc3)CC2)c(=O)c2c1ncn2Cc1ccc(F)cc1 [I-k]
Acute toxicity, LD50 [3]: 400.0 mg/kg
IC50 [1]: 267 nM

Cl.Cl.Cn1c(=O)n(CCCCN2CCN(C(c3ccccc3)c3ccccc3)CC2)c(=O)c2c1ncn2Cc1ccccc1 [I-i]
Acute toxicity, LD50 [3]: 400.0 mg/kg
IC50 [1]: 111 nM
Antihistaminic activity, guinea pigs in vivo, intravenous administration, ED50 [2, 7]: 0.2 mg/kg
Antihistaminic activity, guinea pigs in vivo, peroral administration, ED50 [2, 8]: 0.3 mg/kg

Cl.Cl.Cn1c(=O)n(CCCN2CCN(C(c3ccccc3)c3ccccc3)CC2)c(=O)c2c1ncn2Cc1ccccc1 [I-b]
Acute toxicity, LD50 [3]: >800.0 mg/kg
IC50 [1]: 126 nM
Antihistaminic activity, guinea pigs in vivo, intravenous administration, ED50 [2, 7]: 0.3 mg/kg

Cl.Cl.Cn1c(=O)n(CCCCN2CCN(C(c3ccc(F)cc3)c3ccc(F)cc3)CC2)c(=O)c2[nH]cnc21 [I-u]
Acute toxicity, LD50 [3]: >1000.0 mg/kg
IC50 [1]: 51 nM
Antihistaminic activity, guinea pigs in vivo, intravenous administration, ED50 [2, 7]: 0.7 mg/kg
Antihistaminic activity, guinea pigs in vivo, peroral administration, ED50 [2, 8]: >3.0 mg/kg

Cl.Cl.Cn1c(=O)n(CCCCCN2CCN(C(c3ccccc3)c3ccccc3)CC2)c(=O)c2c1ncn2Cc1ccccc1 [I-m]
Acute toxicity, LD50 [3]: >200.0 mg/kg
IC50 [1]: 92 nM

Cn1cnc2c1c(=O)n(CC(O)CN1CCN(C(c3ccccc3)c3ccccc3)CC1)c(=O)n2C (centres unmarked) [I-x, 1-[2-oxy-3-(benzhydryl-4-piperazinyl-1)propyl]-3,7-dimethylxanthine dihydrochloride]
IC50 [1]: 1270 nM

Cn1c(=O)n(CCCN2CCN(C(c3ccc(F)cc3)c3ccc(F)cc3)CC2)c(=O)c2c1ncn2Cc1ccc(F)cc1 [I-f]
IC50 [1]: 514 nM

Cl.Cl.Cn1c(=O)n(CCCCN2CCN(C(c3ccc(F)cc3)c3ccc(F)cc3)CC2)c(=O)c2c1ncn2Cc1ccccc1 [I-l]
Acute toxicity, LD50 [3]: >1000.0 mg/kg
IC50 [1]: 185 nM
Antihistaminic activity, guinea pigs in vivo, intravenous administration, ED50 [2, 7]: 0.5 mg/kg
Antihistaminic activity, guinea pigs in vivo, peroral administration, ED50 [2, 8]: 0.5 mg/kg

Cl.Cl.Cn1c(=O)n(CCCN2CCN(C(c3ccccc3)c3ccc(Cl)cc3)CC2)c(=O)c2c1ncn2Cc1ccccc1 (centres unmarked) [I-c]
Acute toxicity, LD50 [3]: 400.0 mg/kg
IC50 [1]: 133 nM

Cl.Cl.Cn1c(=O)n(CCCN2CCN(C(c3ccc(F)cc3)c3ccc(F)cc3)CC2)c(=O)c2c1ncn2Cc1ccccc1 [I-d]
Acute toxicity, LD50 [3]: >250.0 mg/kg
IC50 [1]: 114 nM
Antihistaminic activity, guinea pigs in vivo, intravenous administration, ED50 [2, 7]: 0.6 mg/kg
Antihistaminic activity, guinea pigs in vivo, peroral administration, ED50 [2, 8]: 3.0 mg/kg

Cn1c(=O)n(CCCN2CCN(C(c3ccccc3)c3ccccc3)CC2)c(=O)c2c1ncn2CC(=O)O [I-g]
IC50 [1]: 244 nM

Cl.Cl.Cn1c(=O)n(CCCCN2CCN(C(c3ccccc3)c3ccc(Cl)cc3)CC2)c(=O)c2[nH]cnc21 (centres unmarked) [I-t]
Acute toxicity, LD50 [3]: >1000.0 mg/kg
IC50 [1]: 104 nM
Antihistaminic activity, guinea pigs in vivo, intravenous administration, ED50 [2, 7]: 0.3 mg/kg

Cn1c(=O)[nH]c(=O)c2c1ncn2CCCCN1CCN(C(c2ccccc2)c2ccccc2)CC1 [Oxalate, 7-/4-(4-benzhydrylpiperazinyl-1)butyl/-3-methylxanthine]
pH of aqueous solution [6]: 3.44

From patent publication US8569489B2 (A.B. Intelpharm Limited, priority 2007, dated 2013)
